From PubChem BioAssay (NCI) come the findings set out here.

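All cell lines were grown in 96-well plates and treated with compound for 48 hours. GI50: concentration for 50% inhibition of growth. The concentration for full growth arrest is given as TGI.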 Bounds are passed on as bounds.

Among the test systems are ACHN renal; CAKI-1 renal; HS 578T breast; M14 melanoma; MDA-MB-435; NCI-H23 lung; OVCAR-8 ovarian; SK-MEL-28 melanoma; UACC-257 melanoma; UACC-62 melanoma.
What all share (test): inhibition of tumour cell growth, NCI panel, 48 h

As to `CC(=O)C1=C(C)N(C)C2(O)C=CC(=O)C3=C(O)c4ccccc4C(=O)C312` (stereo not given), the GI50 is 10.8 µM with ACHN renal; 3.52 µM in the assay on CAKI-1 renal; 7.23 µM in the assay on HS 578T breast; 2.81 µM with M14 melanoma; 2.12 µM in the assay with MDA-MB-435; 5.21 µM with NCI-H23 lung. For the same compound, the GI50 in the assay on OVCAR-8 ovarian was 24 µM; in the assay with SK-MEL-28 melanoma, 19.4 µM; in the assay with UACC-257 melanoma, 5.73 µM; in the assay on UACC-62 melanoma, 3.89 µM. Also, the TGI with ACHN renal came out at 28.8 µM; with CAKI-1 renal it was 9.65 µM; in the assay on HS 578T breast, 40.5 µM; in the assay on M14 melanoma, 7.87 µM; in the assay on MDA-MB-435 it was 3.89 µM; with NCI-H23 lung, 46 µM. In addition, the TGI in the assay on OVCAR-8 ovarian is greater than 100 µM; with SK-MEL-28 melanoma it was 47.3 µM; in the assay with UACC-257 melanoma, greater than 100 µM; in the assay with UACC-62 melanoma, 14 µM.
As for `CC1(C)C(=O)/C=C\C(=O)C(C)(C)C(=O)/C=C\C(=O)C(C)(C)C(=O)/C=C\C(=O)C(C)(C)C(=O)/C=C\C1=O`, the TGI with ACHN renal is greater than 63.2 µM; in the assay on CAKI-1 renal, 31.2 µM; in the assay with HS 578T breast it was greater than 100 µM; in the assay with M14 melanoma, 48.8 µM; with MDA-MB-435, greater than 100 µM; with NCI-H23 lung, 51.6 µM. In addition, the TGI was 74.5 µM in the assay on OVCAR-8 ovarian, greater than 58 µM in the assay on SK-MEL-28 melanoma, 63.9 µM in the assay on UACC-257 melanoma and 56.3 µM in the assay on UACC-62 melanoma.
On to `CCC(=O)Nc1ccccc1C#C/C=C\C#Cc1ccccc1C(F)(F)F`, for which the GI50 was 3.98 µM with ACHN renal; 1.53 µM in the assay with CAKI-1 renal; 1.35 µM in the assay on HS 578T breast; 2.09 µM in the assay on M14 melanoma; 0.851 µM in the assay with MDA-MB-435; 5.27 µM in the assay with NCI-H23 lung. The GI50 is 8.04 µM with OVCAR-8 ovarian, 3.65 µM in the assay with SK-MEL-28 melanoma, 7.17 µM with UACC-257 melanoma and 2.38 µM in the assay with UACC-62 melanoma. In addition, the TGI was greater than 50 µM in the assay with ACHN renal; greater than 30.4 µM in the assay with CAKI-1 renal; 9.19 µM in the assay with HS 578T breast; 23.2 µM in the assay with M14 melanoma; 1.84 µM with MDA-MB-435; greater than 50 µM with NCI-H23 lung. Also, the TGI was greater than 50 µM in the assay on OVCAR-8 ovarian, greater than 50 µM with SK-MEL-28 melanoma, greater than 45.2 µM in the assay on UACC-257 melanoma and greater than 50 µM in the assay with UACC-62 melanoma.
